Measured values reported in patent publication US7253154B2, “Substituted thiazolopyrimidines as xanthine oxidase inhibitors” (Nippon Chemiphar Co., Ltd., priority 2001, dated 2007).

How the values were obtained:
[1] = molecular target: T1, Cow milk Xanthine Oxidase (Bos taurus, UniProt P80457); test: Xanthine oxidase inhibiting action, in vitro test (oxidation of xanthine, absorbance OD 290); format: biochemical; details: Cow milk xanthine oxidase (Roche), xanthine substrate, 50 mM phosphate buffer pH 7.5, 37° C., 15 min
T1 construct: Cow milk Xanthine Oxidase (Roche); purchased Roche; host or cells: cow milk
T1 sequence (P80457 whole entry): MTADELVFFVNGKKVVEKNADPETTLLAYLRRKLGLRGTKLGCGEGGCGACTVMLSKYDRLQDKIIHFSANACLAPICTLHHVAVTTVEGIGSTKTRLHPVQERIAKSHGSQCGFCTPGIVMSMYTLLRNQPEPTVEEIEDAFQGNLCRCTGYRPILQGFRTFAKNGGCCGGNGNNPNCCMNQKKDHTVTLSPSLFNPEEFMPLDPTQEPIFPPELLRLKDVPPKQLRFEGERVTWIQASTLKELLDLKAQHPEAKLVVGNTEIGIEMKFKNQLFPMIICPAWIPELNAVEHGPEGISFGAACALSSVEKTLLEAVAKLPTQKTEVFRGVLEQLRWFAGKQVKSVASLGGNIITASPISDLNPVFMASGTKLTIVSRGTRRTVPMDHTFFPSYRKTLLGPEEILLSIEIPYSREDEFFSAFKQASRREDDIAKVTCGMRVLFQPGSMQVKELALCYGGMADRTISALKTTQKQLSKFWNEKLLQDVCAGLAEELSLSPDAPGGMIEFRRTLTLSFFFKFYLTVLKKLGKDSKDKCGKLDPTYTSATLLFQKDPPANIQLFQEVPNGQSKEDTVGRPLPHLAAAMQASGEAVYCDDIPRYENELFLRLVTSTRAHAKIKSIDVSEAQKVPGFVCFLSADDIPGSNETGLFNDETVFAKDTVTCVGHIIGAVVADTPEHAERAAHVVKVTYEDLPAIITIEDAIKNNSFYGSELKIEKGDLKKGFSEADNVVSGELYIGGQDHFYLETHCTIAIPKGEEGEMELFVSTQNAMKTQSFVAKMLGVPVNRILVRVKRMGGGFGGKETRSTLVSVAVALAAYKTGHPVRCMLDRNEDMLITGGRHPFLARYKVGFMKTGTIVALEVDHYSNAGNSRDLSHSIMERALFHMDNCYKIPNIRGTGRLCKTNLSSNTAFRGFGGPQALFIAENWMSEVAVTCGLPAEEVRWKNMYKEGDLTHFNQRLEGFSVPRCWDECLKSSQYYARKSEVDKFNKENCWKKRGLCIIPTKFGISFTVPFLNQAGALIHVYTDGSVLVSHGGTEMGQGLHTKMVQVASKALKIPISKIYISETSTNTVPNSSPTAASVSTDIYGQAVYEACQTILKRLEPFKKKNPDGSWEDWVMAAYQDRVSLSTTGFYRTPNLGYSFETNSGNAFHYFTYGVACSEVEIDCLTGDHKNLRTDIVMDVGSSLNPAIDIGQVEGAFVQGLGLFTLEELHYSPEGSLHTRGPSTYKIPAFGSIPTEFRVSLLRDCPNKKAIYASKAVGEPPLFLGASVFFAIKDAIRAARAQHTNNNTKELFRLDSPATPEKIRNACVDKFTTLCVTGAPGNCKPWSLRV
Experimental: Pharmacological Experiment 1 (In Vitro Test)
1. Preparation of Test Sample
250 gL of each of the solutions of the test compound having different concentrations was added to 1 mL of a solution of Xanthine (SIGMA, 300 µM) in the 50 mM phosphor buffer (pH 7.5). The mixture was then pre-incubated at 37° C. for 10 min. Subsequently, to the pre-incubated mixture was added […] of Cow milk Xanthine Oxidase (Roche) diluted with the 50 mM phosphate buffer (pH 7.5) to give a solution of 30 mU concentration. The mixture was then kept at 37° C. for 15 min for performing a reaction. The reaction was terminated by addition of 1N hydrochloric acid. Subsequently, the absorbance ([…]) was measured by means of a spectrophotometer (HITACHI U-2000), to obtain the inhibition ratio.
The inhibition ratio was calculated according to the following formula: Inhibition ratio(%)=[1−(B−C)/(A−C)]×100
B: absorbance measured in the case of using test compound

xanthine oxidase = molecular target: T2, xanthine oxidase (Mus musculus, UniProt Q00519); test: In vivo test: uric acid value in plasma of mouse after oral administration; details: ICR mouse, 3 mg/10 mL/kg single oral administration, blood collected after one hour
T2 construct: ICR mouse (Japan Charles River Co., Ltd., 6 W) was employed as test animal; from tissue; host or cells: living ICR mouse (whole animal; plasma uric acid measured)
T2 sequence (Q00519 whole entry): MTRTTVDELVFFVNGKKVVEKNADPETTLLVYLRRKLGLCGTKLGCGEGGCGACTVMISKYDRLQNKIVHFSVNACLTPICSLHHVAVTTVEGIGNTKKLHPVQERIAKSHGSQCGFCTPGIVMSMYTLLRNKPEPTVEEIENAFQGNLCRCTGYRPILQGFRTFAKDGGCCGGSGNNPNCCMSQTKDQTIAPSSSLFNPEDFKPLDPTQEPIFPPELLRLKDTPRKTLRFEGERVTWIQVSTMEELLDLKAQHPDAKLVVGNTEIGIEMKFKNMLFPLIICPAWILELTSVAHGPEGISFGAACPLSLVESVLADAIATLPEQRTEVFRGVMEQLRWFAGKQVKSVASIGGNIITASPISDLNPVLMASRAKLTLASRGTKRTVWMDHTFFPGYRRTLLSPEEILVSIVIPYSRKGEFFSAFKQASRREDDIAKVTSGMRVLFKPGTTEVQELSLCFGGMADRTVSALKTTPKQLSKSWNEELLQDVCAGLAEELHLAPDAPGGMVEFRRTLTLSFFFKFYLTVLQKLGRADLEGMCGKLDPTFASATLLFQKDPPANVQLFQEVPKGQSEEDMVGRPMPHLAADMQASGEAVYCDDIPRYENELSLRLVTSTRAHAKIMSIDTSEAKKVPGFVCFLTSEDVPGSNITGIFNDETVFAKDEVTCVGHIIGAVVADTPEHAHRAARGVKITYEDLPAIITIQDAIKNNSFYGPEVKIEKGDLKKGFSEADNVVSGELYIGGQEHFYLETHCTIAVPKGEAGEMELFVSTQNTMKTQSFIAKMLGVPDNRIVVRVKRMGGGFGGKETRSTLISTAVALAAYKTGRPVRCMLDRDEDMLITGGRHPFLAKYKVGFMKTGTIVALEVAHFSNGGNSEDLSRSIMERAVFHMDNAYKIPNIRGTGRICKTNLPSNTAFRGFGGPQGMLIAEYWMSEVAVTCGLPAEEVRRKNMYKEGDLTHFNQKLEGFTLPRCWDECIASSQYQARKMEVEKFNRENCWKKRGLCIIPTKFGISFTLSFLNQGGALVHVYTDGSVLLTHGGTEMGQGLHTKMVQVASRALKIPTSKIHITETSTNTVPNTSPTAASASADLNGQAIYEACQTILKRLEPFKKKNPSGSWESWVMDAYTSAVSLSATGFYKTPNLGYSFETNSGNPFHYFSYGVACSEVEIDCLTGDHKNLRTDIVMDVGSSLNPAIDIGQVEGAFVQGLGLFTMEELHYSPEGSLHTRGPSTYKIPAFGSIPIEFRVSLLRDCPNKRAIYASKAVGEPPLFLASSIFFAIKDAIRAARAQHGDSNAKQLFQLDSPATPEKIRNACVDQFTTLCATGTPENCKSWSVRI
Source text: The xanthine oxidase inhibiting action was further confirmed in vivo tests by measuring the uric acid concentration in a plasma obtained from mouse into which the compound of the invention had been orally administered. See Example 1-B, Table 21.
Pharmacological Experiment 2 (In Vivo Test)
1. Test Animals, and Grouping
ICR mouse (Japan Charles River Co., Ltd., 6 W) was employed as test animal. One group comprised mice, and a vehicle control group was set for each experiment.
2. Preparation and Administration of the Test Compound
The test compound was suspended in aqueous […] methylcellulose solution to for administration.
Dosage is 3 mg/10 mL/kg for each of the control groups and all test groups. The administration was made by single oral administration.
3. Procedure of Experiment
The test compound was orally administered once, and the whole blood was collected from main artery in the presence of heparin after one hour. From the collected whole blood was separated plasma in the conventional manner, and the plasma was subjected to measurement of uric acid value by the enzyme method by means of an automatic analytical apparatus (HITACHI 7060E).
The inhibition ratio was calculated according to the following formula: Inhibition ratio(%)=[…]
A: average uric acid value in plasma of the group into which the test compound was administered.
B: average uric acid value in plasma of the vehicle control group

In the case of CC(C)COc1ccc(-c2nc3ncnc(Cl)c3[nH]2)cc1[N+](=O)[O-] [Example 1-A, 8-(4-Isobutoxy-3-nitrophenyl)-6-chloropurine], the IC50 [1] is reported as 0.0632 µM.
With CC(C)COc1ccc(-c2nc3c(N)ncnc3o2)cc1[N+](=O)[O-] [Example 1-B, 6-amino-8-(4-isobutoxy-3-nitrophenyl)oxazolo[4,5-d]pyrimidine] the IC50 [1] was 0.0448 µM and the “Inhibition ratio (plasma uric acid value vs vehicle control group)” value (“Inhibition ratio” for short) (xanthine oxidase) was 60.7%.
In the case of CC(C)COc1ccc(-c2nc3ncnc(O)c3[nH]2)cc1[N+](=O)[O-] [Example 2, 8-(4-Isobutoxy-3-nitrophenyl)-6-hydroxypurine], the IC50 [1] is reported as 0.0111 µM.
For CC(C)COc1ccc(-c2nc3ncnc(N)c3[nH]2)cc1[N+](=O)[O-] [Example 6, 6-Amino-8-(4-isobutoxy-3-nitrophenyl)purine], the IC50 [1] was 0.0759 µM and the “Inhibition ratio” value (xanthine oxidase) was 63.8%.
In the case of CC(C)COc1ccc(-c2nc3c(O)cccc3[nH]2)cc1[N+](=O)[O-] [Example 7, 4-Hydroxy-2-(4-isobutoxy-3-nitrophenyl)-1H-benzimidazole], the IC50 [1] is reported as 0.102 µM.
CC(C)COc1ccc(-c2nc3cccc(C(=O)O)c3o2)cc1[N+](=O)[O-] [Example 8, 2-(4-Isobutoxy-3-nitrophenyl)benzoxazole-7carboxylic acid] was tested, and the IC50 [1] was 0.0186 µM and the “Inhibition ratio” value (xanthine oxidase) was 56.8%.
Compound CC(C)COc1ccc(-c2nc3ccncc3[nH]2)cc1[N+](=O)[O-] [Example 9, 2-(4-Isobutoxy-3-nitrophenyl)-3H-imidazo[4,5-c]pyridine] has an IC50 [1] of 0.0584 µM.
In the case of CC(C)COc1ccc(-c2nc3cccc(C(=O)O)c3s2)cc1C#N [Example 10, 2-(3-Cyano-4-isobutyloxyphenyl)-1,3-benzothiazole-7-carboxylic acid], the IC50 [1] is reported as 0.05 µM and the “Inhibition ratio” value (xanthine oxidase) is reported as 56.1%.
CC(C)COc1ccc(-c2nc3c(C(=O)O)cccc3[nH]2)cc1C#N [Example 11, 2-(3-Cyano-4-isobutyloxyphenyl)benzimidazole-7-carboxylic acid] was tested, and the IC50 [1] was 0.0223 µM and the “Inhibition ratio” value (xanthine oxidase) was 51.4%.
Compound CC(C)COc1ccc(-c2nc3cccc(O)c3s2)cc1C#N [Example 12, 2-(3-Cyano-4-isobutyloxyphenyl)-7-hydroxy 1,3-benzothiazole] has an IC50 [1] of 0.161 µM.
